Measurements published in patent US8680076B2, “Methods of treatment, improvement and prevention using haloaryl substituted aminopurines” (Signal Pharmaceuticals, LLC, priority 2010, dated 2014).
“Also recorded” adds a separate entry of the source.

Test system: c-Jun (JNK) in human skin
Experiment: UVB-irradiated human skin, c-Jun IHC (3-way crossover study)
Type: in vivo
Details: for median subjective score of c-Jun: scale 0-4
Protocol: The inhibitory effect of JNKi-1 on JNK was evaluated by assessing the status of the downstream substrate c-Jun (“cJun”) and phospho-c-Jun (or “p-cJun”) following UV irradiation of human skin.
The study was designed as randomized, double blind, placebo controlled, multiple dose, 3-way crossover study. Fifteen subjects were randomized to one of 3 sequences (5 subjects per sequence) as outlined below (see Table 3). There was a 7-day to 10 day washout period (no more than 14 days) from the last dose of the previous period to the first dose of the next period.
Fifteen patients enrolled, 14 completed the study and were included in the PD and PK analyses; all were healthy Caucasian male volunteers with Fitzpatrick skin type 2. The mean age was […] (20-49 years) and weight was 81 kg (64-96 kg). On the evening of Day-1, patients started fasting (at least an 8-hour fast prior to dosing on Day 1). Subjects received treatment A, B or C in Periods 1 to 3 under fasting conditions in an order based on the randomization scheme. Subjects went through the same procedures (except for the change in treatment) for all 3 periods, with the required washout in between periods. No strenuous activities were permitted during confinement. All efforts were made to keep activities, environment, food, procedures, and schedule between treatment periods identical.
On Day 6, subjects received a 2×MED UV dose to two sites on the buttock. One punch biopsy (approximately 3 mm in diameter by 0.8 mm in depth) was taken from one of the two UV irradiated sites. The punch biopsies were taken at 8 (±5 minutes) hours post UV exposure on Day 6.
Skin specimens from the biopsies was analyzed for phospho c-Jun and total c-Jun using IHC assay. Phospho c-Jun was quantified using a 0-4 subjective grading scales and/or objective scoring using an automated system, i.e. a laser scanning cytometer (LSC), evaluating the integrated intensity of staining measured optically.
Biopsies were analyzed following the procedures described below to evaluate phospho c-Jun and c-Jun expression using IHC assay. The method employed to assess JNK activation was a two antibody IHC assay that employed a primary antibody, directed against the target, and a secondary antibody conjugated with a chromogenic enzyme. Thus, the method was a two-step immunohistochemical assay designed to interrogate the target, c-Jun and phospho c-Jun. Any changes in JNK activity were measurable in the amounts of these target molecules, c-Jun and phospho c-Jun. The secondary antibody-reporter conjugate deposited a red color when incubated with the substrate reaction mix, thus marking the location of the primary antibody target complex. The red color was then recorded with standard bright-field illumination using a Nikon microscope. The microscope images were then photographed and electronic images were scored (blinded) by three independent and trained scorers using the following guidelines. A score of 0 indicated staining of 0-19% of the epithelial keratinocyte nuclei; a score of 1 indicated staining of 20-39% of the epithelial keratinocyte nuclei; a score of 2 indicated staining of 40-59% of the epithelial keratinocyte nuclei; a score of 3 indicated staining of 60-79% of the epithelial keratinocyte nuclei; and a score of 4 indicated staining of 80-100% of the epithelial keratinocyte nuclei. FIG. 21 depicts representative immunostaining for the respective scores.
For each tissue, a count of nuclei in the epithelial layer was obtained. All phospho c-Jun or c-Jun positive nuclei were counted as well as their integral (intensity). A score was calculated for each: score=(p-cJun or cJun positive nuclei×average Intensity)/Total nuclei.

O[C@H]1CC[C@H](Nc2ncc3nc(Nc4c(F)cc(F)cc4F)n([C@H]4CCOC4)c3n2)CC1 [JNKi-1, 4-((9-((3S)-tetrahydro-3-furanyl)-8-((2,4,6-trifluorophenyl)amino)-9H-purin-2-yl)amino)-trans-cyclohexanol]
median subjective score of c-Jun (75 mg QD x 6 days): 3 | odds ratio, c-Jun scores 0, 1, 2 vs. scores 3, 4 (logistic regression) (75 mg vs. placebo): 3.69 | median subjective score of c-Jun (200 mg QD x 6 days): 2 | frequency of high c-Jun subjective scores (200 mg vs placebo): fewer subjects had high cJun scores; also recorded: fewer patients had high scores | odds ratio, c-Jun scores 0, 1, 2 vs. scores 3, 4 (logistic regression) (200 mg vs. placebo): 9.30 | c-Jun immunostaining, percentage of positive epithelial nuclei, Patient 15 (versus placebo): significantly decreased
